Literature values, collected in US20200171149A1, “COMBINATION THERAPY FOR NON-SMALL CELL LUNG CANCER POSITIVE FOR EGFR MUTATION” (MEDIMMUNE LIMITED, priority 2015, published 2020).

Assays:
[1] = system: EGFR-TKI sensitizing and resistance T790M mutations; conditions: preclinical models; Janne et al., J Clin Oncol 2014
[2] = system: tumor; conditions: patients
[3] = system: xenograft model; conditions: T-cell dependent mechanism
[4] = system: human T-cell activation; conditions: in vitro

In the case of C=CC(=O)Nc1cc(Nc2nccc(-c3cn(C)c4ccccc34)n2)c(OC)cc1N(C)CCN(C)C [AZD9291, N-(2-((2-(dimethylamino)ethyl)(methyl)amino)-4-methoxy-5-((4-(1-methyl-1H-indol-3-yl)pyrimidin-2-yl)amino)phenyl)acrylamide], the “Effectiveness against EGFR mutations” value [1] is listed as “effective against both EGFR-TKI sensitizing and resistance T790M mutations”.

In the case of COc1cc2ncnc(Nc3ccc(F)c(Cl)c3)c2cc1OCCCN1CCOCC1 [gefitinib, N-(3-chloro-4-fluorophenyl)-7-methoxy-6-(3-morpholinopropoxy)quinazolin-4-amine], the Tumor regression [2] is listed as “tumor regression in some patients”.

B1: MEDI4736: anti-PD-L1 antibody selective for PD-L1; light chain variable SEQ ID NO: 1, heavy chain variable SEQ ID NO: 2 (antibody, V domains shown)
VH: EVQLVESGGGLVQPGGSLRLSCAASGFTFSRYWMSWVRQAPGKGLEWVANIKQDGSEKYYVDSVKGRFTISRDNAKNSLYLQMNSLRAEDTAVYYCAREGGWFGELAFDYWGQGTLVTVSS
VL: EIVLTQSPGTLSLSPGERATLSCRASQRVSSSYLAWYQQKPGQAPRLLIYDASSRATGIPDRFSGSGSGTDFTLTISRLEPEDFAVYYCQQYGSLPWTFGQGTKVEIK
In the case of B1, the Tumor growth inhibition [3] is listed as “inhibits tumor growth” and the “Relief of PD-L1-mediated suppression of human T-cell activation” value [4] is listed as “can relieve PD-L-mediated suppression of human T-cell activation”.
